Source: patent US20240352145A1, “EFFICACY OF ANTI-TROP-2-SN-38 ANTIBODY DRUG CONJUGATES FOR THERAPY OF TUMORS RELAPSED/REFRACTORY TO CHECKPOINT INHIBITORS” (Immunomedics, Inc., priority 2016, published 2024)

Columns and labels:
[1] = system: BxPC-3 human pancreatic tumors; test: BxPC-3 xenograft therapy; assay type: in vivo, mouse
Description: NCr female athymic nude (nu/nu) mice, 4 to 8 weeks old, and male Swiss-Webster mice, 10 weeks old, were purchased from Taconic Farms. Tolerability studies were performed in Cynomolgus monkeys (Macaca fascicularis; 2.5-4 kg male and female) by SNBL USA, Ltd. Animals were implanted subcutaneously with different human cancer cell lines. Tumor volume (TV) was determined by measurements in 2 dimensions using calipers, with volumes defined as: L×w^2/2, where L is the longest dimension of the tumor and w is the shortest. […] This dosing frequency reflected a consideration of the conjugate's serum half-life […], to allow a more continuous exposure to the ADC.
Statistics—Growth curves are shown as percent change in initial TV over time. Statistical analysis of tumor growth was based on area under the curve (AUC). Profiles of individual tumor growth were obtained through linear-curve modeling. An f-test was employed to determine equality of variance between groups before statistical analysis of growth curves. A 2-tailed t-test was used to assess statistical significance between the various treatment groups and controls, except for the saline control, where a 1-tailed t-test was used (significance at P≤0.05). Statistical comparisons of AUC were performed only up to the time that the first animal within a group was euthanized due to progression.

[2] = Tolerability in Cynomolgus monkeys; assay type: in vivo, Macaca fascicularis
Description: Dosages, times, and number of monkeys bled for evaluation of possible hematologic toxicities and serum chemistries are described in the Results.

[3] = SN-38 release at lysosomal pH; assay type: physicochemical; conditions: pH 5.3 at 37° C.
BxPC-3 = test: Cytotoxicity (MTS), Example 7, BxPC-3; assay type: cell-based, human; conditions: BxPC-3, 96 h
Description: One day prior to adding the ADC, cells were harvested from tissue culture and plated into 96-well plates at 2000 cells per well. […] Plates were incubated at 37° C. for 96 h. […] Growth inhibition was measured as a percent of growth relative to untreated cells using Microsoft Excel and Prism software (non-linear regression to generate sigmoidal dose response curves which yield IC50-values).

[4] = system: human gastric carcinoma xenografts (NCI-N87); test: NCI-N87 xenograft, comparison of anti-Trop-2 ADCs; assay type: in vivo, mouse
Description: NCI-N87 cells were expanded in tissue culture and harvested with trypsin/EDTA. Female athymic nude mice were injected s.c. with 200 μL of NCI-N87 cell suspension mixed 1:1 with matrigel such that 1×10^7 cells was administered to each mouse. Once tumors reached approximately 0.25 cm^3 in size (6 days later), the animals were divided up into seven different treatment groups of nine mice each. For the SN-38 ADCs, mice received 500 μg i.v. injections once a week for two weeks. Control mice received the non-tumor targeting hA20-SN-38 ADC at the same dose/schedule. A final group of mice received only saline and served as the untreated control. Tumors were measured and mice weighed twice a week. Mice were euthanized for disease progression if their tumor volumes exceeded 1.0 cm^3 in size.

[5] = system: Trop-2+ human gastric carcinoma xenografts (NCI-N87); test: Effect of DAR on efficacy, NCI-N87 xenograft; assay type: in vivo, mouse; conditions: for median survival time (MST): 2 treatments 7 days apart, 0.5 mg
Description: Effect of DAR on pharmacokinetics and anti-tumor efficacy in mice.

[6] = system: human pancreatic adenocarcinoma xenograft model (BxPC-3); test: Clinically-relevant dosing schemes, BxPC-3 xenograft; assay type: in vivo, mouse; conditions: for TTP: untreated 5.0±2.3
Description: In Vivo Therapeutic Studies—NCr female athymic nude (nu/nu) mice, 4-8 weeks old, were purchased from Taconic Farms (Germantown, NY). NCI-N87 gastric tumor xenografts were established by harvesting cells from tissue culture and making a final cell suspension 1:1 in matrigel (BD Bioscience; San Jose, CA), with each mouse receiving a total of 1×10^7 cells s.c. in the right flank. For BxPC-3. xenografts of 1 g were harvested, and a tumor suspension made in HBSS to a concentration of 40% tumor w/v. This suspension was mixed 1:1 with matrigel for a final tumor suspension of 20% w/v. […] For IHC, tumors were allowed to grow to approximately 0.5 cm^3 before the mice were euthanized and the tumors removed, formalin-fixed and paraffin-embedded. For therapy studies, mice were randomized into treatment groups and therapy begun when tumor volumes were approximately 0.25 cm^3.
Mice were euthanized and deemed to have succumbed to disease once tumors grew to greater than 1.0 cm^3 in size. […] Time to progression (TTP) was determined as time post-therapy initiation when the tumor grew more than 20% in size from its nadir.
A human dose of 8 mg/kg translates to a murine dose of 98.4 mg/kg, or approximately 2 mg to a 20 g mouse.

[7] = system: metastatic non-small cell lung cancer (NSCLC); test: Phase I/II, metastatic NSCLC cohort; assay type: in vivo, human
Description: The best responses by RESIST 1.1 criteria were determined (not shown).

urothelial cancer = test: Phase I/II, urothelial cancer cohort; assay type: in vivo, human
[8] = mouse, in vivo
[9] = Cardillo et al., 2011; cited from earlier work
PC-3 = test: In vitro cytotoxicity, PC-3
Description: Cell lines, antibodies, and chemotherapeutics—All human cancer cell lines used in this study were purchased from the American Type Culture Collection.

IMMU-132
tumor volume (TV) ([1]; day 21, equivalent amounts of ADC): 0.24±0.11 cm^3 | tumor volume (TV) ([1]; day 25): 0.27±0.18 cm^3 | serum chemistries ([2]; 2x0.96 mg SN-38/kg): No abnormal values | weight loss ([2]; 2x0.96 mg SN-38/kg): ≤ 7.3% | histopathology, microscopic changes ([2]; 2x0.96 mg SN-38/kg, day 11): minimal to moderate | blood counts ([2]; 2x0.96 mg/kg, transient decreases, listed as sacituzumab govitecan): the values did not fall below normal ranges | deaths ([2]; 2x1.92 mg SN-38/kg, gastrointestinal complications and bone marrow suppression): 1 | extrapolated human dose ([2]; cynomolgus monkey, in vivo): ~0.3 mg/kg/dose | time for release of 50% of the SN-38 [3]: ~13 h | IC50 (BxPC-3): 5.8 nM | tumor growth (AUC) vs saline and hA20-SN-38 ([4]; 500 μg i.v. once a week for two weeks): significantly inhibited tumor growth | mean time to tumor progression (TTP) ([4]; mouse, in vivo): 18.4 ± 3.3 days | mice with stable disease ([4]; nine mice per group): 7 of 9 | median survival time (MST) ([5]; DAR 1.64): 21 days | median survival time (MST) ([5]; DAR 3.28 (printed 3.38)): 25 days | tumor growth inhibition (AUC) ([5]; DAR 6.89, 0.5 mg twice weekly for two weeks vs DAR 3.28, 1 mg): inhibited tumor growth significantly more than tumor-bearing animals treated with the 3.28 DAR conjugate | median survival time (MST) ([5]; DAR 6.89): 39 days | anti-tumor effect vs untreated ([6]; all three dosing schemes of fractionated 2 mg): significant anti-tumor effect | TTP ([6]; eight doses of 0.25 mg): 31.7 ± 14.5 days | TTP ([6]; two doses of 1 mg (days 1 and 15)): 22.4 ± 10.1 days | median PFS ([7]; 8 mg/kg): 3.4 months | median PFS ([7]; 10 mg/kg): 3.8 months | patients with PR or SD ([7]; 21/33): 64% | PR, patients ([7]; 29 assessable patients, 8 or 10 mg/kg): 8 | median time to progression ([7]; in vivo): 9/4 | PR, patients (urothelial cancer; 11 assessable patients, 8 or 10 mg/kg): 6 | median time to progression (urothelial cancer; in vivo): 8.1 months | patients with long-term stable disease (metastatic PDC; 8/13 PDC patients): 62% | median TTP, CT assessable patients (metastatic PDC; 8.0 weeks estimated from last prior therapy): 12.7 wks | stable disease, number of patients (metastatic PDC; 13 assessable patients): 8 | response (metastatic PDC; case): stable disease by CT RECIST criteria | CA19-9 after treatment (metastatic PDC; case, from 15885 U/mL): 4418 U/mL | Alopecia (Grades 1-2), patients (metastatic PDC; in vivo): 5 of 9 | Grade 3-4 nausea or vomiting (metastatic PDC; in vivo): no patient | Phase 2 dose (metastatic PDC; in vivo): 8 to 10 mg/kg | median TTP, all 14 patients (metastatic PDC; in vivo): 11.9 wks | neutropenia ≥G3 (metastatic PDC; in vivo): 33% | patients with Grade 3 diarrhea (metastatic PDC; in vivo): Two | progressive disease by RECIST, patients (metastatic PDC; in vivo): Five | maximum decline in CA19-9 (metastatic PDC; person, 8 mg/kg days 1 and 8 of 21 day cycle): 72% | clearance vs unconjugated IgG [8]: no significant difference in the clearance | very well tolerated human equivalent dose [9]: ~40 mg/kg | IC50 (PC-3): 4.24 nM
